Assay results published in paper PMC9481570, “A small molecule antagonist of SMN disrupts the interaction between SMN and RNAP II” (Nature Communications, 2022).
Read-outs that look alike come from different tables or passages of the source.

How the values were obtained:
TDRD2 = target: T1, TDRD2 (Homo sapiens, UniProt Q9Y2W6); test: ITC binding to TDRD2; settings: Fig. 1c
T1 construct: TDRD2 (aa 327–420); His (N, cleaved yes); made in house; host or cells: E. coli BL21 (DE3) Codon plus RIL
Source text: The coding DNA fragments of following Tudor domains were cloned into pET28-MHL vector: SMN (aa 82–147), UHRF1 (aa 126–285), SMNDC1 (aa 53–130), TDRD3 (aa 554–611), SND1 (aa 650–910), TDRD2 (aa 327–420), FXR1 (aa 2–132), PHF1 (aa 28–87), SGF29 (aa 115–293), JMJD2A (aa 897–1101), 53BP1 (aa 1483–1606), SETDB1 (aa 190–410), LBR (aa 1–67), ZGPAT (aa 120–271). The coding regions of chromodomain of CBX7 (aa 8–62), PWWP domain of DNMT3A (aa 275–417), WD40 repeats of WDR5 (aa 24–334) and CW domain of ZCWPW2 (aa 21–78) were also subcloned into pET28-MHL vector to generate N-terminally His-tagged fusion protein. The MBT repeats of L3MBTL1 (aa 200–522) and L3MBTL2 (aa 170–625) were subcloned into pET28GST-LIC vector to generate N-terminally GST-His-tagged fusion protein. All the plasmids were generated by ligase independent cloning (Vazyme Biotech, C112 or ABclonal Technology, RK21020). […] The molecular weight of all protein samples was measured by mass spectrometry.
For the ITC measurement, the concentrated proteins were diluted into 20 mM Tris-HCl, pH 7.5, 150 mM NaCl (ITC buffer); the lyophilized compounds were dissolved in the same buffer, and the pH value was adjusted by adding 2 M NaOH or 2 M HCl. […] Compound concentrations were calculated from the mass and the volume of the solvent. […]

SND1 = target: T2, SND1 (Homo sapiens, UniProt Q7KZF4); test: ITC binding to SND1
T2 construct: SND1 (aa 650–910); His (N, cleaved yes); made in house; host or cells: E. coli BL21 (DE3) Codon plus RIL
T2 sequence (Q7KZF4 650-910): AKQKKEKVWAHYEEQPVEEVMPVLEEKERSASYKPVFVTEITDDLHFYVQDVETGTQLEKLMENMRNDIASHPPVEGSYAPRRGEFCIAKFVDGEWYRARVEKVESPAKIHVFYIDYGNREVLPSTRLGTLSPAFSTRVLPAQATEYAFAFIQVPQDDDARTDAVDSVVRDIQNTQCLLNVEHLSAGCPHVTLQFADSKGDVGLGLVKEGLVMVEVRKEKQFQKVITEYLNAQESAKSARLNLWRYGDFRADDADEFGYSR
Source text: The coding DNA fragments of following Tudor domains were cloned into pET28-MHL vector: SMN (aa 82–147), UHRF1 (aa 126–285), SMNDC1 (aa 53–130), TDRD3 (aa 554–611), SND1 (aa 650–910), TDRD2 (aa 327–420), FXR1 (aa 2–132), PHF1 (aa 28–87), SGF29 (aa 115–293), JMJD2A (aa 897–1101), 53BP1 (aa 1483–1606), SETDB1 (aa 190–410), LBR (aa 1–67), ZGPAT (aa 120–271). The coding regions of chromodomain of CBX7 (aa 8–62), PWWP domain of DNMT3A (aa 275–417), WD40 repeats of WDR5 (aa 24–334) and CW domain of ZCWPW2 (aa 21–78) were also subcloned into pET28-MHL vector to generate N-terminally His-tagged fusion protein. The MBT repeats of L3MBTL1 (aa 200–522) and L3MBTL2 (aa 170–625) were subcloned into pET28GST-LIC vector to generate N-terminally GST-His-tagged fusion protein. All the plasmids were generated by ligase independent cloning (Vazyme Biotech, C112 or ABclonal Technology, RK21020). […] The proteins were further purified by Superdex75 or Superdex200 gel-filtration column (GE Healthcare) in a buffer containing 20 mM Tris-HCl, pH 7.5, 150 mM NaCl and 1 mM DTT. For crystallization experiments, purified proteins were concentrated to 18 mg/mL for SMN, 23 mg/mL for UHRF1 and 10 mg/mL for TDRD3 in the gel-filtration buffer. […] The molecular weight of all protein samples was measured by mass spectrometry.
For the ITC measurement, the concentrated proteins were diluted into 20 mM Tris-HCl, pH 7.5, 150 mM NaCl (ITC buffer); the lyophilized compounds were dissolved in the same buffer, and the pH value was adjusted by adding 2 M NaOH or 2 M HCl. […] Compound concentrations were calculated from the mass and the volume of the solvent. […] The protein with a concentration of 50–100 μM was placed in the cell chamber, and the compounds with a concentration of 0.5–2 mM in syringe was injected in 25, 20, or 20 successive injections with a spacing of 180, 150, or 120 s for VP-ITC, iTC-200, or Nano-ITC, respectively, as previously described[30]–[32]. iTC-200 or Nano-ITC data were consistent with those from the VP-ITC instrument, based on ITC results of SMN-compound 1 detected by using all the instruments. […]

T1 sequence (Q9Y2W6 327-420): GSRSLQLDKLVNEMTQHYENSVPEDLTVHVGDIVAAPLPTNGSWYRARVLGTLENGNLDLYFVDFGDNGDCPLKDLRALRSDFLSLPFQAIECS

For `Cn1c2c(c(=N)c3c1CCC3)CCC2` [Compound 1, 4-methyl-2,3,4,5,6,7-hexahydrodicyclopenta[b,e]pyridin-8(1H)-imine], the Kd (TDRD2) was greater than 244 µM, the Kd (SND1; ITC, Fig. 1c, read-out: Kd (SND1)) was greater than 100 µM and the Kd (SND1; Supplementary Fig. 11c, VP-ITC, read-out: Kd, ITC binding curve, SND1) was 244 ± 51 µM. The “ITC binding curve, SND1 (in words)” value (SND1; Supplementary Fig. 2d) was “Weak binding”.
